pEC50: −log10 of the molar value.
What was measured:
APOL1 G2 [1] = biological target: T1, APOL1 G2 (Homo sapiens, UniProt O14791, DEL388-389); assay: APOL1 calcium transport inhibition assay (GCaMP6f calcium influx, FLIPR) in HEK T-REx/GCaMP6f/APOL1 G2 K6.3 cells; type: cell-based; conditions: inhibition of APOL1-mediated calcium influx; geometric mean of at least 2 assay runs, † = single assay run (technical duplicate)
T1 construct: expressed in transfected cells; host or cells: HEK293 T-REx clonal lines: HEK T-REx/GCaMP6f/APOL1 G2 K6.3 in A1, HEK293/T-REx APOL1 G2/clone #2 in A2
T1 sequence (O14791 with tags, fused parts or gaps DEL388-389): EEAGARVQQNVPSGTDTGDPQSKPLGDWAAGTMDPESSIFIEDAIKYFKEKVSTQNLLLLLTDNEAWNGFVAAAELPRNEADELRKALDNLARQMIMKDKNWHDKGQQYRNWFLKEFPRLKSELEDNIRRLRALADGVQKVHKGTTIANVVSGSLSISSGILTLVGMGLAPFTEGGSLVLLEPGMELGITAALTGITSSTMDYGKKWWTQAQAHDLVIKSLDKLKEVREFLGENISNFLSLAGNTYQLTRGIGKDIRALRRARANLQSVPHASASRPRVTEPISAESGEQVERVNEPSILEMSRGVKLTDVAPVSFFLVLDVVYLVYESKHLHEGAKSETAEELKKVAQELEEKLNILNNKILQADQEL
How it was run: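 HEK293 cells stably expressing GCaMP6f, APOL1 G2 induced 6 h with doxycycline (20 ng/mL added), then washed into Ca2+-free Tyrode's buffer pH 7.4. Compounds (8-point dose response) preincubated 10 min at room temperature, then Ca2+ injected to 5 mM final and influx read on FLIPR. AC50 reported as geometric mean of runs.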

APOL1 G2 [2] = biological target: T1, APOL1 G2; assay: Rescue of HEK293 cell death caused by overexpression of APOL1 (CellTiter-Glo luminescence), HEK293/T-REx APOL1 G2/clone #2; type: cell-based; conditions: reversal of cell death caused by overexpression of APOL1; geometric mean of at least 2 assay runs, † = single assay run (technical duplicate)
How it was run: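 HEK293/T-REx APOL1 G2 clone #2 cells, 5,000/well, induced with 6 ng/mL doxycycline and exposed to compound (8-point, 3-fold dilutions, 0.5% DMSO) for 17 h at 37 °C. Viability by CellTiter-Glo luminescence; EC50 for reversal of APOL1-induced death from a four-parameter logistic fit, geometric mean of ≥2 runs.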

AC50 (APOL1 G2 [1]) [nM]	SMILES	pEC50 (APOL1 G2 [2])
144	C[C@@H]1CN(CCc2cc(Cl)cc(C#N)c2)C[C@H]1COc1ccc(S(=O)(=O)CCS(C)(=O)=O)cc1 [Compound 108, 3-chloro-5-{2-[(3S,4S)-3-{[4-(2-methanesulfonyl-ethanesulfonyl)phenoxy]methyl}-4-methyl-pyrrolidin-1-yl]ethyl}benzonitrile]	7.30
461	C[C@@H]1CN(CC(O)c2cc(Cl)cc(C#N)c2)C[C@H]1COc1ccc(S(C)(=O)=O)cc1 (stereo partly drawn) [Compound 120]	6.71
376	C[C@@H]1CN(CC(O)c2cccc(Cl)c2)C[C@H]1COc1ccc(S(C)(=O)=O)cc1 (stereo partly drawn) [Compound 123, 1-(3-chlorophenyl)-2-((3S,4S)-3-methyl-4-((4-(methylsulfonyl)phenoxy)methyl)pyrrolidin-1-yl)ethan-1-ol]	6.52
704	C[C@@H]1CN(CC(O)c2cccc(C#N)c2)C[C@H]1COc1ccc(S(C)(=O)=O)cc1 (stereo partly drawn) [Compound 126]	6.25
1040	C[C@@H]1CN(CC(O)c2cc(C#N)cc(C#N)c2)C[C@H]1COc1ccc(S(C)(=O)=O)cc1 (stereo partly drawn) [Compound 129, 5-{1-hydroxy-2-[(3S,4S)-3-[(4-methanesulfonylphenoxy)methyl]-4-methylpyrrolidin-1-yl]ethyl}benzene-1,3-dicarbonitrile]	6.14
510	C[C@@H]1C[C@H](COc2ccc(S(C)(=O)=O)cc2)CN1CCc1cc(C#N)cc(C#N)c1 [Compound 132]	7.36
38.3	C[C@@H]1CN(CCc2cccc(Cl)c2)C[C@H]1COc1ccc(S(C)(=O)=O)cc1 [Compound 133, (35,4S)-1-[2-(3-chlorophenyl)ethyl]-3-[(4-methanesulfonylphenoxy)methyl]-4-methylpyrrolidine]	6.87
277	C[C@H]1CC[C@H](COc2ccc(S(C)(=O)=O)cc2)CN1CCc1cccc(Cl)c1 [Compound 134, (25,5S)-1-[2-(3-chlorophenyl)ethyl]-5-[(4-methanesulfonylphenoxy)methyl]-2-methylpiperidine]	6.04
737	Cc1c(C#N)cc(Cl)cc1CCN1C[C@@H](COc2ccc(S(C)(=O)=O)cc2)C[C@H]1C [Compound 141, 5-chloro-3-{2-[(2R,4S)-4-[(4-methanesulfon-ylphenoxy)meth-yl]-2-methyl-pyrrolidin-1-yl]-ethyl}-2-methyl-benzonitrile]	7.10
423	Cc1c(C#N)cc(Cl)cc1CCN1C[C@@H](COc2ccc(S(C)(=O)=O)cc2)[C@H](C)C1 [Compound 144, 5-chloro-3-{2-[(3S,4S)-3-[(4-methanesulfon-ylphenoxy)meth-yl]-4-methyl-pyrrolidin-1-yl]-ethyl}-2-methyl-benzonitrile]	6.59
99.8	C[C@@H]1CN(CCc2cccc(C#N)c2)C[C@H]1COc1ccc(S(C)(=O)=O)cc1 [Compound 149, 3-{2-[(3S,4S)-3-[(4-methane-sulfonylphen-oxy)methyl]-4-methylpyrroli-din-1-yl]ethyl}-benzonitrile]	6.57
374	C[C@@H]1C[C@H](COc2ccc(S(C)(=O)=O)cc2)CN1CCc1cccc(Cl)c1 [Compound 153, (2R,4S)-1-[2-(3-chlorophenyl)-ethyl]-4-[(4-methanesulfon-ylphenoxy)meth-yl]-2-methyl-pyrrolidine]	7.56
311	C[C@@H]1C[C@H](COc2ccc(S(=O)(=O)C3CNC3)cc2)CN1CCc1cccc(C#N)c1 [Compound 156, 3-{2-[(2R,4S)-4-{[4-(azetidine-3-sulfonyl)phenoxy]methyl}-2-methylpyrrolidin-1-yl]ethyl}benzonitrile]	6.75
441	CN=S(C)(=O)c1ccc(OC[C@H]2C[C@@H](C)N(CCc3cccc(C#N)c3)C2)cc1 (stereo partly drawn) [Compound 157, 3-[2-[(2R,4S)-2-methyl-4-({4-[methyl(methyli-mino)oxo-λ^6-sulfanyl]phenoxy}methyl)pyrrolidin-1-yl]ethyl}benzonitrile]	7.41
382	C[C@@H]1CC[C@H](COc2ccc(S(C)(=O)=O)cc2)CN1CCc1cccc(Cl)c1 [Compound 160, (2R,5S)-1-[2-(3-chlorophenyl)ethyl]-5-[(4-methanesulfonylphenoxy)methyl]-2-methylpiperidine]	6.23
878	C[C@@H]1C[C@H](COc2ccc(S(=O)(=O)C3CNC3)cc2)CN1CCc1cc(Cl)cc(C#N)c1 [Compound 161, 3-{2-[(2R,4S)-4-{[4-(azetidine-3-sulfonyl)phenoxy]methyl}-2-methylpyrrolidin-1-yl]ethyl}-5-chlorobenzonitrile]	6.72
233	C[C@@H]1C[C@H](COc2ccc(S(=O)(=O)CCCS(C)(=O)=O)cc2)CN1CCc1cccc(C#N)c1 [Compound 162, 3-{2-[(2R,4S)-4-{[4-(3-methanesulfonylpro-panesulfonyl)phe-noxy]methyl}-2-methylpyrrolidin-1-yl]ethyl}benzonitrile]	7.55
1150	C[C@@H]1CN(CCc2cccc(S(F)(F)(F)(F)F)c2)C[C@H]1COc1ccc(S(C)(=O)=O)cc1 [Compound 163, (3S,4S)-3-[(4-methanesulfonylphenoxy)methyl]-4-methyl-1-{2-[3-(pentafluoro-λ^6-sulfanyl)phenyl]ethyl}pyrrolidine]	< 6.41
364	C[C@@H]1C[C@H](COc2ccc(S(=O)(=O)CCCS(C)(=O)=O)cc2)CN1CCc1cc(Cl)cc(C#N)c1 [Compound 164, 3-chloro-5-{2-[(2R,4S)-4-{[4-(3-methanesulfonylpro-panesulfonyl)phe-noxy]methyl}-2-methylpyrrolidin-1-yl]ethyl}benzonitrile]	7.47
409	C[C@@H]1C[C@H](COc2ccc(S(=O)(=O)CCO)cc2)CN1CCc1cc(Cl)cc(C#N)c1 [Compound 165, 3-chloro-5-{2-[(2R,4S)-4-{[4-(2-hydroxyethanesul-fonyl)phenoxy]meth-yl}-2-methylpyrrolidin-1-yl]ethyl}benzonitrile]	7.52
256	C[C@@H]1CN(CCc2cc(Cl)cc(C#N)c2)C[C@H]1COc1ccc(S(=O)(=O)C(C)(C)CO)cc1 [Compound 166, 3-chloro-5-{2-[(3S,4S)-3-{[4-(1-hydroxy-2-methylpropane-2-sulfonyl)phenoxy]methyl}-4-methylpyrrolidin-1-yl]ethyl}benzonitrile]	7.75
314	C[C@@H]1CN(CCc2cc(Cl)cc(C#N)c2)C[C@H]1COc1ccc(S(=O)(=O)CCCS(C)(=O)=O)cc1 [Compound 167, 3-chloro-5-{2-[(3S,4S)-3-{[4-(3-methanesulfonylpro-panesulfonyl)phe-noxy]methyl}-4-methylpyrrolidin-1-yl]ethyl}benzonitrile]	7.17
179	C[C@@H]1CN(CCc2cccc(C#N)c2)C[C@H]1COc1ccc(S(=O)(=O)CCCS(C)(=O)=O)cc1 [Compound 168, 3-{2-[(3S,4S)-3-{[4-(3-methanesulfonylpro-panesulfonyl)phe-noxy]methyl}-4-methylpyrrolidin-1-yl]ethyl}benzonitrile]	6.90
79.7	CN=S(C)(=O)c1ccc(OC[C@@H]2CN(CCc3cccc(C#N)c3)C[C@H]2C)cc1 (stereo partly drawn) [Compound 169, 3-{2-[(3S,4S)-3-methyl-4-({4-[methyl(methyli-mino)oxo-λ^6-sulfanyl]phenoxy}methyl)pyrrolidin-1-yl]ethyl}benzonitrile]	6.74
104	C[C@@H]1CN(CCc2cccc(C#N)c2)C[C@H]1COc1ccc(S(=O)(=O)C2CNC2)cc1 [Compound 172, 3-{2-[(3S,4S)-3-{[4-(azetidine-3-sulfonyl)phenoxy]methyl}-4-methylpyrrolidin-1-yl]ethyl}benzonitrile]	6.69

SMILES	AC50 (APOL1 G2 [1]) [nM]	pEC50 (APOL1 G2 [2])
C[C@@H]1CN(CCc2cc(C#N)cc(C#N)c2)C[C@H]1COc1ccc(S(C)(=O)=O)cc1 [Compound 145, 5-{2-[(3S,4S)-3-[(4-methane-sulfonylphen-oxy)methyl]-4-methylpyrroli-din-1-yl]ethyl}-benzene-1,3-dicarbonitrile]	356	6.61
CC(CN1C[C@@H](COc2ccc(S(C)(=O)=O)cc2)[C@H](C)C1)c1cc(Cl)cc(C#N)c1 (stereo partly drawn) [Compound 146, 3-chloro-5-[1-[(3S,4S)-3-[(4-methanesulfon-ylphenoxy)meth-yl]-4-methyl-pyrrolidin-1-yl]-propan-2-yl]-benzonitrile]	937	6.56

From US20240316038A1, “APOL1 INHIBITORS AND METHODS OF USE” (Maze Therapeutics, Inc., priority 2021, published 2024)
